# Reference: patent US20130183239A1, “ISOTOPIC CARBON CHOLINE ANALOGS” (IMPERIAL COLLEGE, priority 2010, published 2013)
# Assays:
# [1] = test system: human melanoma (A375), prostate (PC3-M) and colon (HCT116) cancer cell lines; assay: In vitro 18F-D4-choline uptake in cancer cell lines; assay type: cell-based; conditions: the three cell lines over 30 min
# Description: Uptake was measured in vehicle-treated (closed symbols) and hemicholinium-3-treated cells (5 mM; open symbols). Mean values+SEM are shown (n=3). Insert: representative western blot of choline kinase-α expression in the three cell lines. Actin was used as a loading control. Abbreviations: CKα, choline kinase alpha.
# Cells (5×10^5) were plated into 6-well plates the night prior to analysis. On the day of the experiment, fresh growth medium, containing 40 μCi ^18F-D4-choline, was added to individual wells. Cell uptake was measured following incubation at 37° C. in a humidified atmosphere of 5% CO2 for 60 min. Plates were subsequently placed on ice, washed 3 times with ice-cold PBS and lysed in RIPA buffer (Thermo Fisher Scientific Inc., Rockford, Ill., USA; 1 mL, 10 min). […] Aliquots were snap-frozen and used for protein determination following radioactive decay using a BCA 96-well plate assay (Thermo Fisher Scientific Inc., Rockford, Ill., USA). Data were expressed as percent of total radioactivity per mg protein. For hemicholinium-3 treatment (5 mM; Sigma-Aldrich), cells were incubated with the compound 30 min prior to addition of radioactivity and for the duration of the uptake time course. […]
# [2] = mouse, in vivo
# Description: Metabolite analysis of tissues including liver, kidney and tumor by HPLC was also accomplished. […] Choline and its metabolites lack any UV chromophore to permit presentation of chromatograms of the cold unlabelled compound simultaneously with the radioactivity chromatograms.
# Liver, kidney, and tumor samples were obtained at 30 min. All samples were snap-frozen in liquid nitrogen. For analysis, samples were thawed and kept at 4° C. immediately before use. To ˜0.2 mL plasma was added ice-cold methanol (1.5 mL). The mixture was then centrifuged (3 min, 15,493×g, 4jC). The supernatant was evaporated to dryness using a rotary evaporator (Heidoloph Instruments) at a bath temperature of 40° C. The residue was suspended in mobile phase (1.1 mL), clarified (0.2 Am filter), and analyzed by HPLC. Liver, kidney, and tumor samples were homogenized in ice-cold methanol (1.5 mL) using an IKA Ultra-Turrax T-25 homogenizer and subsequently treated as per plasma samples (above). All samples were analyzed by radio-HPLC on an Agilent 1100 series HPLC system (Agilent Technologies) equipped with a γ-RAM Model 3 γ-detector (IN/US Systems) and Laura 3 software (Lablogic). The stationary phase comprised a Waters μBondapak C18 reverse-phase column (300×7.8 mm) (Waters, Milford, Mass., USA). Samples were analyzed using a mobile phase comprising solvent A (acetonitrile/water/ethanol/acetic acid/1.0 mol/L ammonium acetate/0.1 mol/L sodium phosphate; 800/127/68/2/3/10) and solvent B (acetonitrile/water/ethanol/acetic acid/1.0 mol/L ammonium acetate/0.1 mol/L sodiumphosphate; 400/400/68/44/88/10) with a gradient of 0% B for 6 min, then 0→100% B in 10 min, 100% B for 0.5 min, 100→0% B in 1.5 min then 0% B for 2 min, delivered at a flow rate of 3 mL/min.
# [3] = mouse, in vivo, iv
# [4] = test system: choline oxidase; assay: Enzymatic oxidation study using choline oxidase; conditions: 60 minute time point, radio-HPLC
smiles,measurement,setting,value
"[2H]C([2H])(O)C([2H])([2H])[N+](C)(C)C[18F] [[^18F]D4-FCH, [^18F]fluoromethyl-[1,2-^2H4]-choline]",in vitro uptake of 18F-D4-choline,[1],similar
same,kidney radioactivity as phosphocholine,[2],60.6±3.7%
same,kidney radioactivity in the form of betaine,[2],20.6±6.2%
same,unknown metabolite (possibly the aldehyde intermediate) in liver,[2],7.4±2.3%
same,unknown metabolite in kidney,[2],8.8±0.2%
same,form of radioactivity in tumors,[2]; iv,mainly in the form of phosphocholine
same,conversion to betaine metabolite in plasma,[3],~40%
same,parent radiotracer present,[4],29±4%
